The record followed here is patent US4673684A, “Amide derivatives and 5-lipoxygenase inhibitors containing the same as an active ingredient” (Terumo Corporation, priority 1984, dated 1987).

For this assay, the target named is T1, 5-lipoxygenase (Mus musculus, UniProt P48999).
T1 construct: The supernatant is used as a 5-lipogenase enzyme solution; endogenous in cells
T1 sequence (P48999 1-674): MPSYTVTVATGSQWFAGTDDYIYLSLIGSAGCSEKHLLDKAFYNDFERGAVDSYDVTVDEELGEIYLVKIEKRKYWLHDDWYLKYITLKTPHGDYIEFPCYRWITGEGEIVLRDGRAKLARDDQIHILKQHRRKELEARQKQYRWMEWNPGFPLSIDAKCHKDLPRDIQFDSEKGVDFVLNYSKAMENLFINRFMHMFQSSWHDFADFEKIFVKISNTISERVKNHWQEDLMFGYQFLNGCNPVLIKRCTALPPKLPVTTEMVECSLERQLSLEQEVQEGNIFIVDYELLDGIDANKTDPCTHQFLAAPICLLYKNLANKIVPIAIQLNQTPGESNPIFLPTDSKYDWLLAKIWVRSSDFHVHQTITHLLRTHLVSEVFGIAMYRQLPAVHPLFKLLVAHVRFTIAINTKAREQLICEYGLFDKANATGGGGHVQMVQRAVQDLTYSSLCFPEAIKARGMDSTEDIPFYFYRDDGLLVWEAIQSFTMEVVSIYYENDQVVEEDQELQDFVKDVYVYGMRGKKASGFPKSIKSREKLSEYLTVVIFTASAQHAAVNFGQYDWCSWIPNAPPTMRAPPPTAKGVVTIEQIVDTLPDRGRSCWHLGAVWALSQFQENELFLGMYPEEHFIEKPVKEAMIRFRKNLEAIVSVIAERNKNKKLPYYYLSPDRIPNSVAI
As to the kind of experiment: 5-Lipoxygenase-inhibiting Activity (decrease in 5-HETE and LTB4 formed from radiolabelled arachidonic acid, enzyme solution from mouse mastcytoma cells P-815). Type of assay: biochemical. As for the experimental part:
Mouse mastcytoma cells P-815 are diluted in a culture solution, containing 90% Eagle Basic Medium (manufactured by Gibco Laboratories) to 5×10^4 cells/ml. The diluted solution is cultivated with shaking in air at 37° C. for 48 hours. Then, the culture solution is cooled with ice and centrifuged to collect the cells. The cells are suspended in a phosphate buffer solution at pH 7.4 at a concentration of 2×10^7 cells/ml. The suspension is treated in a ultrasonic cell disintegrater and then centrifuged at 10,000 r.p.m. for 10 min. The supernatant is used as a 5-lipogenase enzyme solution. In test tubes are placed 20 μl of radiolabelled arachidonic acid ([…]), indomethacin (2×10^-8 mol) and an amide derivative to be tested, respectively. To each of the test tubes are added 0.45 ml of a phosphate buffer solution, 0.45 ml of the above-prepared suspension, 0.45 ml of the above-prepared enzyme solution and 0.1 ml of 8 mM CaCl2 (calcium chloride). The mixture is reacted at 37° C. for 5 min. After cooled with ice, 60 μl of 1N-HCl (hydrochloric acid is added to the reaction mixture, which is then extracted with 8 ml of ethyl acetate. The extract is concentrated, and the concentrate is developed by spotting on a silica gel thin layer plate (Merck 60F 254). Measurement of the inhibitory activity is made by collecting fractions corresponding to lipoxygenase products 5-HETE (5(s)-hydroxy-6,8,11,14-eicosatetraenic acid) and LTB4 (leucotriene B4) and determining the radioactivity by a liquid scintillation counter. The lipoxygenase inhibiting activity is determined by decrease in the amount of the above-mentioned 5-lipoxygenaseproducts. […] 50% inhibitory concentration or 30% inhibitory concentration as indicated in the table means the concentration of an amide derivative required for reducing the amount of the above-mentioned 5-lipoxygenase products (5-HETE and LTB4) to 50% or 30% of the amount when the amount of 5-HETE and LTB4 produced in the absenced of the amide derivative is 100%.

The mark [1] stands for this setting: 5-HETE and LTB4 formation, mouse mastcytoma P-815 enzyme solution, 37° C., 5 min, pH 7.4, with indomethacin, read-out: 50% Inhibitory concentration IC50.

Like-named read-outs stand apart in the source and are kept apart here.

As to `COc1cc(/C=C/C=C/C(=O)NCCCCNC(C)=O)ccc1O` [Example 18, N-{5-(3-methoxy-4-hydroxyphenyl)-2,4-pentadienoyl}-N'-acetyl-1,4-diaminobutane], the IC50 under setting [1] stood at 6000 nM.
Take `COc1cc(/C=C/C(=O)NCCCN2CCC(OC(c3ccccc3)c3ccccc3)CC2)cc(OC)c1O` [Example 126, 1-[3-{3-(3,5-dimethoxy-4-hydroxyphenyl)-2-propenoyl}aminopropyl]-4-benzhydroxypiperidine]: under setting [1], the IC50 is 10 nM.
For `COc1ccc(/C=C/C(=O)NCCn2cnc3c2c(=O)n(C)c(=O)n3C)cc1OC` [Example 75, 7-[2-[3-(3,4-dimethoxyphenyl) -2-porpenoyl]aminoethyl]theophylline], the IC50 under setting [1] is 20000 nM.
On the same count and under the same terms, the figure for `COc1cc(/C=C/C=C/C(=O)N2CCN(CCCn3cnc4c3c(=O)n(C)c(=O)n4C)CC2)cc(OC)c1OC` [Example 134, 7-[3-[4-[5-(3,4,5-trimethoxyphenyl)-2,4-pentadienoyl]piperazi-1-nyl]-1-propyl]theophylline] is 20000 nM; for `COc1cc(/C=C/C=C/C(=O)N2CCN(CCOC(C)(c3ccccc3)c3ccc(Cl)cc3)CC2)ccc1O` (stereo not drawn) [Example 110, N-[5-(3-methoxy-4-hydroxyphenyl)-2,4-pentadienoyl]-N'-[2-[1-phenyl-1-(p-chlorophenyl)ethoxy]ethyl]piperazine] it is 10 nM; for `COc1cc(/C=C/C=C/C(=O)NCCCCNC(=O)c2ccccc2N)ccc1O` [Example 43, N-5-(3-methoxy-4-hydroxy)phenyl-2,4-pentadienoyl-N'-(2-amino)-benzoyl putrescine] it is 300 nM.
Still for that read-out and setting: the figure for `COc1cc(/C=C/C=C/C(=O)NCc2c(CO)cnc(C)c2O)ccc1O` [Example 17] is 4000 nM; for `CC(OCCCN1CCN(C(=O)/C=C/C=C/c2ccc(O)c(O)c2)CC1)(c1ccccc1)c1ccc(Cl)cc1` (stereo not drawn) [Example 108, N-[5-(3,4-dihydroxy)phenyl-2,4-pentadienoyl]-N'-[3-[1-phenyl-1-(p-chlorophenyl)ethoxy]propyl]piperazine] it is 8 nM.
Still for that read-out and setting: the figure for `COc1cc(/C=C/C=C/C(=O)NCc2c(COC(=O)c3ccc(C)cc3)cnc(C)c2O)cc(OC)c1OC(=O)c1ccc(C)cc1` [Example 58, 4-{5-(3,5-dimethoxy-4-toluoxyphenyl)-2,4-pentadienoyl}aminomethyl-3-hydroxy-2methyl-5-toluoxymethylpyridine] is 3000 nM; for `O=C(/C=C/c1ccc(O)c(O)c1)N1CCN(C(c2ccccc2)c2ccccc2)CC1` [Example 8, N-benzhydryl-N'-{(3,4-dihydroxyphenyl)-2-propenoyl}-piperazine] it is 100 nM.
`COc1cc(/C=C/C=C/C(=O)N2CCN(CCOC(c3ccccc3)c3ccccc3)CC2)ccc1O` [Example 89, N-[5-(3-methoxy-4-hydroxyphenyl)-2,4-pentadienoyl]-N'-(2-benzhydroxyethyl)piperazine] yielded an IC50 of 60 nM.
For the compound `COc1ccc(/C=C/C=C/C(=O)NCCN2CCN(C(=O)c3ccccc3N)CC2)cc1OC` [Example 48, N-(o-aminobenzoyl)-N'-[{5-(3,4-dimethoxyphenyl)-2,4-pentadienoyl}aminoethyl]piperazine], the IC50 under setting [1] stood at 6000 nM.
Consider `COc1cc(/C=C/C(=O)NCCCCN2CCN(C(c3ccccc3)c3ccccc3)CC2)cc(OC)c1O` [Example 78, N-benzyhdryl-N'-3-(3,5-dimethoxy-4-hydroxy)phenyl-2-propenoylaminobutylpiperazine], for which the IC50 under setting [1] is 30 nM.
On to `CC/C=C\C/C=C\C/C=C\CCCCCCCC(=O)NCCCCNC(=O)/C=C/C=C/c1ccc(O)c(O)c1` [Example 23, N-5-(3,4-dihydroxyphenyl)2,4-pentadienoyl-N'-9,12,15-octadecatrienoyl-1,4-diaminobutane], for which the IC50 under setting [1] amounted to 20 nM.
For `COc1cc(/C=C/C=C/C(=O)NCCCCNC(=O)/C=C/C=C/c2ccc(O)c(OC)c2)ccc1O` [Example 14, N,N'-di{5-(3-methoxy-4-hydroxyphenyl)-2,4-pentadienoyl}-1,4-diaminobutane], the IC50 under setting [1] amounted to 100 nM.
